Reference: ChEMBL document CHEMBL1201862, “PubChem BioAssay data set” (2004)
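48-hour exposure; five concentrations; linearly interpolated endpoints. GI50 = concentration required for 50% inhibition of growth.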 Activity calls are given as the source filed them. Rule as the data show it: active = GI50 up to about 1.1 µM and inactive = higher.

What was measured:
Assay in all cases: NCI tumour cell line growth inhibition, 48 h
HOP-62 = test system: HOP-62
UACC-257 = test system: UACC-257
MDA-MB-435 = test system: MDA-MB-435
SK-MEL-28 = test system: SK-MEL-28
EKVX = test system: EKVX
HT-29 = test system: HT-29
K562 = test system: K562
SNB-19 = test system: SNB-19
OVCAR-8 = test system: OVCAR-8
SF-295 = test system: SF-295
SK-MEL-5 = test system: SK-MEL-5
SF-268 = test system: SF-268
OVCAR-5 = test system: OVCAR-5
Hs-578T = test system: Hs-578T
HCC 2998 = test system: HCC 2998
CCRF-CEM = test system: CCRF-CEM
786-0 = test system: 786-0
NCI-H460 = test system: NCI-H460
SN12C = test system: SN12C
SR = test system: SR
SF-539 = test system: SF-539
SK-OV-3 = test system: SK-OV-3
SW-620 = test system: SW-620
MOLT-4 = test system: MOLT-4
TK-10 = test system: TK-10
COLO 205 = test system: COLO 205
HCT-15 = test system: HCT-15
MDA-N = test system: MDA-N
MCF7 = test system: MCF7
HL-60 = test system: HL-60
A549 = test system: A549
M14 = test system: M14
ACHN = test system: ACHN
SNB-75 = test system: SNB-75
T47D = test system: T47D
MDA-MB-231 = test system: MDA-MB-231
KM12 = test system: KM12
PC-3 = test system: PC-3
UO-31 = test system: UO-31
HCT-116 = test system: HCT-116
U-251 = test system: U-251
NCI-H522 = test system: NCI-H522
IGROV-1 = test system: IGROV-1
NCI/ADR-RES = test system: NCI/ADR-RES
OVCAR-4 = test system: OVCAR-4
RPMI-8226 = test system: RPMI-8226
OVCAR-3 = test system: OVCAR-3
LOX IMVI = test system: LOX IMVI
SK-MEL-2 = test system: SK-MEL-2
NCI-H226 = test system: NCI-H226
NCI-H23 = test system: NCI-H23
Malme-3M = test system: Malme-3M
A498 = test system: A498
RXF 393 = test system: RXF 393
HOP-92 = test system: HOP-92
UACC-62 = test system: UACC-62

For `C[n+]1c(-c2ccc(/C=N/Nc3n[nH]c(=S)n3N/N=C/c3ccc(-c4cn5ccccc5[n+]4C)cc3)cc2)cn2ccccc21`, the GI50 (HOP-62) was > 100 µM (inactive), the GI50 (UACC-257) was > 100 µM (inactive) and the GI50 (MDA-MB-435) was > 100 µM (inactive). For the same molecule, the GI50 (SK-MEL-28) was > 100 µM (inactive), the GI50 (EKVX) was > 100 µM (inactive) and the GI50 (HT-29) was > 100 µM (inactive). The GI50 (K562) was > 100 µM (inactive), the GI50 (SNB-19) was > 100 µM (inactive) and the GI50 (OVCAR-8) was > 100 µM (inactive). The GI50 (SF-295) was > 100 µM (inactive), the GI50 (SK-MEL-5) was > 100 µM (inactive) and the GI50 (SF-268) was > 100 µM (inactive). The GI50 (OVCAR-5) was > 100 µM (inactive), the GI50 (Hs-578T) was > 100 µM (inactive) and the GI50 (HCC 2998) was > 100 µM (inactive). The GI50 (CCRF-CEM) was > 100 µM (inactive), the GI50 (786-0) was > 100 µM (inactive) and the GI50 (NCI-H460) was > 100 µM (inactive). The GI50 (SN12C) was > 100 µM (inactive), the GI50 (SR) was > 100 µM (inactive) and the GI50 (SF-539) was > 100 µM (inactive). For the same molecule, the GI50 (SK-OV-3) was > 100 µM (inactive), the GI50 (SW-620) was > 100 µM (inactive) and the GI50 (MOLT-4) was > 100 µM (inactive). For the same molecule, the GI50 (TK-10) was > 100 µM (inactive), the GI50 (COLO 205) was > 100 µM (inactive) and the GI50 (HCT-15) was over 100 µM. The GI50 (MDA-N) was > 100 µM (inactive), the GI50 (MCF7) was > 100 µM (inactive) and the GI50 (HL-60) was > 100 µM (inactive). The GI50 (A549) was > 100 µM (inactive), the GI50 (M14) was > 100 µM (inactive) and the GI50 (ACHN) was > 100 µM (inactive). The GI50 (SNB-75) was > 100 µM (inactive), the GI50 (T47D) was > 100 µM (inactive) and the GI50 (MDA-MB-231) was > 100 µM (inactive). The GI50 (KM12) was > 100 µM (inactive), the GI50 (PC-3) was > 100 µM (inactive) and the GI50 (UO-31) was > 100 µM (inactive). The GI50 (HCT-116) was > 100 µM (inactive), the GI50 (U-251) was > 100 µM (inactive) and the GI50 (NCI-H522) was > 100 µM (inactive). The GI50 (IGROV-1) was > 100 µM (inactive), the GI50 (NCI/ADR-RES) was > 100 µM (inactive) and the GI50 (OVCAR-4) was > 100 µM (inactive). The GI50 (RPMI-8226) was > 100 µM (inactive).

In the case of `Nc1ccc(S(=O)(=O)Nc2ncccn2)cc1` [SULFADIAZINE, SILVER], the GI50 (K562) is reported as 2.12 µM (inactive), the GI50 (CCRF-CEM) is reported as 1.82 µM (inactive) and the GI50 (NCI-H522) is reported as 1.77 µM (inactive).

With `COC(=O)c1c2c(cc3c1CC1(Cc4cc5c(c(C=O)c4C1)CCCC5)C3)CCCC2` (configuration not stated) the GI50 (HOP-62) was 31.8 µM (inactive), the GI50 (UACC-257) was 50.5 µM (inactive) and the GI50 (MDA-MB-435) was > 100 µM (inactive). For the same molecule, the GI50 (OVCAR-3) was 29.9 µM (inactive), the GI50 (LOX IMVI) was > 100 µM (inactive) and the GI50 (EKVX) was 52.4 µM (inactive). For the same molecule, the GI50 (HT-29) was 51.3 µM (inactive), the GI50 (K562) was 33.2 µM (inactive) and the GI50 (OVCAR-8) was 87.5 µM (inactive). For the same molecule, the GI50 (SF-295) was > 100 µM (inactive), the GI50 (SK-MEL-5) was 71.4 µM (inactive) and the GI50 (OVCAR-5) was > 100 µM (inactive). For the same molecule, the GI50 (Hs-578T) was 29.2 µM (inactive), the GI50 (HCC 2998) was 39 µM (inactive) and the GI50 (786-0) was > 100 µM (inactive). The GI50 (SN12C) was 70 µM (inactive), the GI50 (SR) was 36.8 µM (inactive) and the GI50 (SF-539) was 74.8 µM (inactive). For the same molecule, the GI50 (SK-MEL-2) was 10.2 µM (inactive), the GI50 (SK-OV-3) was > 100 µM (inactive) and the GI50 (MOLT-4) was 55.1 µM (inactive). The GI50 (NCI-H226) was 80 µM (inactive), the GI50 (TK-10) was 97.9 µM (inactive) and the GI50 (COLO 205) was 20.7 µM (inactive). The GI50 (HCT-15) was 34.4 µM, the GI50 (NCI-H23) was 57.9 µM (inactive) and the GI50 (MDA-N) was 89.3 µM (inactive). The GI50 (Malme-3M) was > 100 µM (inactive), the GI50 (A498) was 66.8 µM (inactive) and the GI50 (MCF7) was 27 µM (inactive). For the same molecule, the GI50 (HL-60) was 30 µM (inactive), the GI50 (A549) was 33.5 µM (inactive) and the GI50 (M14) was > 100 µM (inactive). The GI50 (ACHN) was 23.9 µM (inactive), the GI50 (T47D) was 45.3 µM (inactive) and the GI50 (MDA-MB-231) was 32.7 µM (inactive). The GI50 (PC-3) was 40.5 µM (inactive), the GI50 (RXF 393) was 32.7 µM (inactive) and the GI50 (UO-31) was 0.103 µM (active). For the same molecule, the GI50 (HCT-116) was 23.3 µM (inactive), the GI50 (HOP-92) was 56.6 µM (inactive) and the GI50 (UACC-62) was 23.5 µM (inactive). For the same molecule, the GI50 (U-251) was 43.8 µM (inactive), the GI50 (NCI-H522) was 32.1 µM (inactive) and the GI50 (IGROV-1) was 81.5 µM (inactive). The GI50 (NCI/ADR-RES) was 94.6 µM (inactive), the GI50 (OVCAR-4) was 34.1 µM (inactive) and the GI50 (RPMI-8226) was > 100 µM (inactive).
